Experimental data from article PMC11971462, “Generation and validation of a novel multitarget small molecule in glioblastoma” (Cell Death & Disease, 2025).

System: GNS166 cells

SMILES: C#CCN(Cc1cc2cc(OCCCN3CCCCC3)ccc2n1S(=O)(=O)c1ccccc1)C(=O)CCCCCCC(=O)NO [DDI]
- FBXO2 log2FoldChange: 2.58
- FGF13 log2FoldChange: 3.276
- FIBIN log2FoldChange: 2.106
- FKBP1B log2FoldChange: 2.251
- FOLR1 log2FoldChange: 2.626
- FOXO6 log2FoldChange: 2.278
- FRK log2FoldChange: 2.849
- FSTL5 log2FoldChange: 5.479
- FXYD6 log2FoldChange: 4.385
- GABRB1 log2FoldChange: 3.597
- GABRD log2FoldChange: 5.7221
- GABRQ log2FoldChange: 7.349
- GALNT6 log2FoldChange: 2.317
- GDPD1 log2FoldChange: 2.176
- GFY log2FoldChange: 3.527
- GLB1L2 log2FoldChange: 6.148
- GNG4 log2FoldChange: 2.04
- GNG8 log2FoldChange: 3.102
- GPC3 log2FoldChange: 3.37
- GPC5 log2FoldChange: 2.595
- GRB14 log2FoldChange: 2.215
- GRHL3 log2FoldChange: 2.762
- GRIA2 log2FoldChange: 4.688
- GRIA4 log2FoldChange: 3.3
- GRID2IP log2FoldChange: 3.773
- GRIN3B log2FoldChange: 5.631
- GSTO2 log2FoldChange: 2.18
- HAND1 log2FoldChange: 4.809
- HAPLN3 log2FoldChange: 2.0919
- HBA1 log2FoldChange: 5.471
- HBA2 log2FoldChange: 4.292
- HEPHL1 log2FoldChange: 2.403
- HGF log2FoldChange: 3.276
- HHIP log2FoldChange: 3.119
- HIF3A log2FoldChange: 5.349
- HLA-DMB log2FoldChange: 2.342
- HMCN2 log2FoldChange: 3.444
- HOATZ log2FoldChange: 4.467
- HOXA13 log2FoldChange: 2.2385
- HPCAL4 log2FoldChange: 5.769
- HSPA2 log2FoldChange: 3.557
- HTR6 log2FoldChange: 3.33
- ID4 log2FoldChange: 2.033
- IER3 log2FoldChange: 2.061
- IFITM10 log2FoldChange: 2.3164
- IGFBP3 log2FoldChange: 2.818
- IGFN1 log2FoldChange: 4.535
- IGLON5 log2FoldChange: 3.821
- IGSF1 log2FoldChange: 6.9503
- IGSF9 log2FoldChange: 5.356
- IGSF11 log2FoldChange: 3.128
- IL1A log2FoldChange: 2.307
- IL18R1 log2FoldChange: 2.881
- IL21R log2FoldChange: 5.107
- INSRR log2FoldChange: 3.812
- INSYN1 log2FoldChange: 2.89
- ITGAX log2FoldChange: 6.404
- ITIH5 log2FoldChange: 7.18
- JAK3 log2FoldChange: 3.281
- JAKMIP1 log2FoldChange: 6.861
- JPH3 log2FoldChange: 7.177
- JPH4 log2FoldChange: 6.374
- KCNH7 log2FoldChange: 3.228
- KCNK3 log2FoldChange: 2.911
- KCNN1 log2FoldChange: 6.119
- KCNN3 log2FoldChange: 2.959
- KCNQ2 log2FoldChange: 7.079
- KCNQ3 log2FoldChange: 6.35
- KCNU1 log2FoldChange: 3.505
- KDR log2FoldChange: 2.185
- KIAA1755 log2FoldChange: 3.46
- KIF26A log2FoldChange: 3.322
- KIRREL2 log2FoldChange: 3.351
- KISS1R log2FoldChange: 5.189
- KLRG1 log2FoldChange: 3.015
- KNDC1 log2FoldChange: 5.452
- KRT81 log2FoldChange: 2.561
- LAMA1 log2FoldChange: 4.927
- LANCL3 log2FoldChange: 2.567
- LGI3 log2FoldChange: 4.02
- LGI4 log2FoldChange: 3.612
- LHX6 log2FoldChange: 2.492
- LINGO1 log2FoldChange: 3.184
- LMX1B log2FoldChange: 4.789
- LRAT log2FoldChange: 2.695
- LRRC4B log2FoldChange: 6.224
- LRRC63 log2FoldChange: 3.034
- LTK log2FoldChange: 2.536
- LUM log2FoldChange: 2.768
- MACC1 log2FoldChange: 2.159
- MAGEC1 log2FoldChange: 3.487
- MAK log2FoldChange: 2.409
- MDFI log2FoldChange: 3.485
- MEFV log2FoldChange: 4.614
- MEGF11 log2FoldChange: 3.91
- MGAT3 log2FoldChange: 4.144
- MME log2FoldChange: 2.372
- MORN3 log2FoldChange: 2.131
- MPP7 log2FoldChange: 2.694
- MRO log2FoldChange: 3.525
- MT3 log2FoldChange: 2.775
- MYEOV log2FoldChange: 3.238
- MYO1D log2FoldChange: 2.853
- MYOZ2 log2FoldChange: 6.009
- NALF2 log2FoldChange: 4.418
- NAT16 log2FoldChange: 3.0286
- NCALD log2FoldChange: 2.788
- NCAN log2FoldChange: 5.945
- NCCRP1 log2FoldChange: 5.22
- NECTIN4 log2FoldChange: 2.229
- NFASC log2FoldChange: 2.355
- NFATC4 log2FoldChange: 2.3144
- NFIA log2FoldChange: 2.067
- NKD1 log2FoldChange: 3.284
- NKX1-2 log2FoldChange: 2.899
- NLRP1 log2FoldChange: 3.5059
- NME5 log2FoldChange: 2.6336
- NPY2R log2FoldChange: 3.759
- NSG1 log2FoldChange: 5.809
- NTNG2 log2FoldChange: 2.905
- NXPH3 log2FoldChange: 2.7857
- OLFM2 log2FoldChange: 3.458
- OLIG2 log2FoldChange: 6.361
- OTOGL log2FoldChange: 4.502
- PALM3 log2FoldChange: 2.0048
